Common to all, as to experiment: relative viability (nuclei count vs DMSO), 5 days (fraction); higher = more cells survive
Compound in experiment [1]: CC[C@H](CO)Nc1nc(NCc2ccccc2)c2ncn(C(C)C)c2n1 [Seliciclib] + NC(=O)Nc1cc(-c2cccc(F)c2)sc1C(=O)N[C@H]1CCCNC1 [AZD7762] (partner 0.2 µM)
An outline of the steps:
(§1)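 Lung cancer cell lines were seeded in 1536-well plates and dosed by pin tool the next day, with either a single drug or a fixed anchor-drug dose combined with five library-drug doses (not always all listed) spaced in √10 steps. Five days later, one step fixed the cells and stained their nuclei (final 0.05% Triton X-100, 1% formaldehyde, 1 ug/ml Hoechst), and nuclei were counted on 4× images. Relative viability is the nuclei count in treated wells divided by the count in vehicle wells, and each value is the median of duplicate plates.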

Compound in experiment [2]: CC[C@H](CO)Nc1nc(NCc2ccccc2)c2ncn(C(C)C)c2n1 [Seliciclib] + C[C@@H](Oc1cc(-c2cnn(C3CCNCC3)c2)cnc1N)c1c(Cl)ccc(F)c1Cl [Crizotinib] (partner 1 µM)
An outline of the steps: as §1

Compound in experiment [3]: CC[C@H](CO)Nc1nc(NCc2ccccc2)c2ncn(C(C)C)c2n1 [Seliciclib] + CC(=O)c1c(C)c2cnc(Nc3ccc(N4CCNCC4)cn3)nc2n(C2CCCC2)c1=O [Palbociclib] (partner 0.5 µM)
An outline of the steps: as §1

Compound in experiment [4]: CC[C@H](CO)Nc1nc(NCc2ccccc2)c2ncn(C(C)C)c2n1 [Seliciclib] + O=C(CCCCCCC(=O)Nc1ccccc1)NO [Vorinostat] (partner 1 µM)
An outline of the steps: as §1

Regarding NCI-H1734, the relative viability in experiment [1] (first compound 0.08 µM) was 0.533; in experiment [1] (first compound 0.253 µM) it was 0.43; in experiment [1] (first compound 0.8 µM), 0.584; in experiment [1] (first compound 2.53 µM) it was 0.561; in experiment [1] (first compound 8 µM), 0.642; in experiment [2] (first compound 0.08 µM), 0.63. Also, the relative viability in experiment [2] (first compound 0.253 µM) was 0.576; in experiment [2] (first compound 0.8 µM) it was 0.622; in experiment [2] (first compound 2.53 µM), 0.683; in experiment [2] (first compound 8 µM), 0.533; in experiment [3] (first compound 0.08 µM), 0.35; in experiment [3] (first compound 0.253 µM) it was 0.26. Further, the relative viability in experiment [3] (first compound 0.8 µM) is 0.369; in experiment [3] (first compound 2.53 µM), 0.286; in experiment [3] (first compound 8 µM) it was 0.282; in experiment [4] (first compound 0.08 µM) it was 0.802; in experiment [4] (first compound 0.253 µM) it was 0.623; in experiment [4] (first compound 0.8 µM), 0.969. For the same cell line, the relative viability in experiment [4] (first compound 2.53 µM) is 0.716; in experiment [4] (first compound 8 µM) it was 0.456.
Turning to NCI-H1755, the relative viability in experiment [1] (first compound 0.08 µM) was determined as 0.447; in experiment [1] (first compound 0.253 µM), 0.408; in experiment [1] (first compound 0.8 µM), 0.481; in experiment [1] (first compound 2.53 µM) it was 0.488; in experiment [1] (first compound 8 µM) it was 0.617; in experiment [2] (first compound 0.08 µM) it was 0.84. Moreover, the relative viability in experiment [2] (first compound 0.253 µM) is 0.85; in experiment [2] (first compound 0.8 µM) it was 0.84; in experiment [2] (first compound 2.53 µM) it was 0.973; in experiment [2] (first compound 8 µM), 0.854; in experiment [3] (first compound 0.08 µM), 0.417; in experiment [3] (first compound 0.253 µM), 0.477. For the same cell line, the relative viability was 0.342 in experiment [3] (first compound 0.8 µM); 0.433 in experiment [3] (first compound 2.53 µM); 0.412 in experiment [3] (first compound 8 µM); 0.654 in experiment [4] (first compound 0.08 µM); 0.748 in experiment [4] (first compound 0.253 µM); 0.696 in experiment [4] (first compound 0.8 µM). The relative viability in experiment [4] (first compound 2.53 µM) was 0.692; in experiment [4] (first compound 8 µM), 0.637.
Consider NCI-H1915, for which the relative viability stood at 0.714 in experiment [1] (first compound 0.08 µM); 0.591 in experiment [1] (first compound 0.253 µM); 0.826 in experiment [1] (first compound 0.8 µM); 0.817 in experiment [1] (first compound 2.53 µM); 0.717 in experiment [1] (first compound 8 µM); 0.922 in experiment [2] (first compound 0.08 µM). The relative viability in experiment [2] (first compound 0.253 µM) turned out to be 0.964; in experiment [2] (first compound 0.8 µM), 0.88; in experiment [2] (first compound 2.53 µM), 0.816; in experiment [2] (first compound 8 µM), 0.757; in experiment [3] (first compound 0.08 µM) it was 0.522; in experiment [3] (first compound 0.253 µM) it was 0.545. In addition, the relative viability in experiment [3] (first compound 0.8 µM) is 0.449; in experiment [3] (first compound 2.53 µM), 0.457; in experiment [3] (first compound 8 µM), 0.315; in experiment [4] (first compound 0.08 µM), 0.499; in experiment [4] (first compound 0.253 µM) it was 0.532; in experiment [4] (first compound 0.8 µM), 0.611. The values for the relative viability in experiment [4] (first compound 2.53 µM) and in experiment [4] (first compound 8 µM) were 0.492 and 0.421, respectively.
Consider NCI-H1944, for which the relative viability in experiment [1] (first compound 0.08 µM) was 0.521; in experiment [1] (first compound 0.253 µM), 0.473; in experiment [1] (first compound 0.8 µM), 0.503; in experiment [1] (first compound 2.53 µM) it was 0.584; in experiment [1] (first compound 8 µM), 0.636; in experiment [2] (first compound 0.08 µM), 1.09. Moreover, the relative viability in experiment [2] (first compound 0.253 µM) amounted to 1.16; in experiment [2] (first compound 0.8 µM) it was 0.931; in experiment [2] (first compound 2.53 µM), 0.996; in experiment [2] (first compound 8 µM), 0.714; in experiment [3] (first compound 0.08 µM), 0.354; in experiment [3] (first compound 0.253 µM) it was 0.312. In addition, the relative viability in experiment [3] (first compound 0.8 µM) was 0.28; in experiment [3] (first compound 2.53 µM) it was 0.261; in experiment [3] (first compound 8 µM), 0.268; in experiment [4] (first compound 0.08 µM), 0.562; in experiment [4] (first compound 0.253 µM), 0.527; in experiment [4] (first compound 0.8 µM) it was 0.466. For the same cell line, the relative viability was 0.552 in experiment [4] (first compound 2.53 µM) and 0.338 in experiment [4] (first compound 8 µM).
Turning to NCI-H1975, the relative viability in experiment [1] (first compound 0.08 µM) was found to be 0.684; in experiment [1] (first compound 0.253 µM), 0.628; in experiment [1] (first compound 0.8 µM) it was 0.741; in experiment [1] (first compound 2.53 µM), 0.613; in experiment [1] (first compound 8 µM) it was 0.758; in experiment [2] (first compound 0.08 µM) it was 0.966. Moreover, the relative viability in experiment [2] (first compound 0.253 µM) was determined as 0.984; in experiment [2] (first compound 0.8 µM), 0.917; in experiment [2] (first compound 2.53 µM), 0.924; in experiment [2] (first compound 8 µM) it was 0.662; in experiment [3] (first compound 0.08 µM) it was 0.619; in experiment [3] (first compound 0.253 µM), 0.342. Also, the relative viability in experiment [3] (first compound 0.8 µM) worked out at 0.55; in experiment [3] (first compound 2.53 µM), 0.389; in experiment [3] (first compound 8 µM), 0.339; in experiment [4] (first compound 0.08 µM), 0.689; in experiment [4] (first compound 0.253 µM) it was 0.608; in experiment [4] (first compound 0.8 µM), 0.66. Moreover, the results for the relative viability in experiment [4] (first compound 2.53 µM) and in experiment [4] (first compound 8 µM) were 0.652 and 0.46, respectively.
On to NCI-H1993, for which the relative viability in experiment [1] (first compound 0.08 µM) worked out at 0.778; in experiment [1] (first compound 0.253 µM) it was 0.739; in experiment [1] (first compound 0.8 µM) it was 0.843; in experiment [1] (first compound 2.53 µM), 0.662; in experiment [1] (first compound 8 µM), 0.63; in experiment [2] (first compound 0.08 µM), 0.769. Further, the relative viability in experiment [2] (first compound 0.253 µM) amounted to 0.803; in experiment [2] (first compound 0.8 µM) it was 0.768; in experiment [2] (first compound 2.53 µM) it was 0.849; in experiment [2] (first compound 8 µM), 0.727; in experiment [3] (first compound 0.08 µM), 0.699; in experiment [3] (first compound 0.253 µM) it was 0.567. Besides, the relative viability is 0.533 in experiment [3] (first compound 0.8 µM); 0.547 in experiment [3] (first compound 2.53 µM); 0.423 in experiment [3] (first compound 8 µM); 0.836 in experiment [4] (first compound 0.08 µM); 0.931 in experiment [4] (first compound 0.253 µM); 0.883 in experiment [4] (first compound 0.8 µM). Also, the relative viability in experiment [4] (first compound 2.53 µM) came to 0.559; in experiment [4] (first compound 8 µM), 0.498.
